Active and inactive are the calls of the source.
Columns and labels:
[1] = target: Potassium voltage-gated channel subfamily KQT member 2 (Rattus norvegicus, UniProt O88943); experiment: blockers of KCNQ2 channel current – cell-based, automated electrophysiology, set II, rat KCNQ2, dose response (AID 588637); type: functional
BJ [2] = experiment: BJ-TERT fibroblast viability loss – cell-based, RAS-independent, luminescence, dose response (AID 1933); type: functional; conditions: Homo sapiens
[3] = target: T1, Heat shock factor protein 1 (Mus musculus, UniProt P38532); experiment: decrease of HSF1-responsive luciferase luminescence – cell-based, NIH3T3, dose retest, confirmation (AID 2382); type: functional;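 further: NIH3T3 fibroblasts with HSF1-driven luciferase reporter stressed by proteasome inhibitor MG132; luminescence from HSF1-driven luciferase expression after 8 hours of MG132 stress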
T1 sequence (P38532 whole entry): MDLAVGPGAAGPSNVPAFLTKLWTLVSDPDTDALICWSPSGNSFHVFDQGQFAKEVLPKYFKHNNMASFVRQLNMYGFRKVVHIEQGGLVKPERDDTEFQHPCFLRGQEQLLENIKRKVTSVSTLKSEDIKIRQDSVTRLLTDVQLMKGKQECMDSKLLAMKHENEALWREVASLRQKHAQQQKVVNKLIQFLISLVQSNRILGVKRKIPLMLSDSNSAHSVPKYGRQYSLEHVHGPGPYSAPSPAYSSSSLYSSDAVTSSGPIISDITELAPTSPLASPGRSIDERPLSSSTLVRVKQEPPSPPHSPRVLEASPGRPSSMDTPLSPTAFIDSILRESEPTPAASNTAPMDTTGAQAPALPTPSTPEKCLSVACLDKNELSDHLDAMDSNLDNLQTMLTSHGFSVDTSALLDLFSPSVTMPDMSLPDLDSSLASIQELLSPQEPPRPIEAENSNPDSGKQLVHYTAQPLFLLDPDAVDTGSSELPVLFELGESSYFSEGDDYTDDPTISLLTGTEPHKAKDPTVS

BJ [4] = experiment: cells; type: functional, cell-based; conditions: Homo sapiens
[5] = viability of PTEN-deleted HCT116 cells – cell-based, HCT116 PTEN knockout, dose response (AID 1047); type: functional;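 further: HCT116 colon tumor cells with PTEN knocked out; cells exposed to compound for 60 hours before readout; potency for loss of cell viability measured by luminescence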
[6] = viability of HCT116 lacking mutant beta-catenin – cell-based, human colon tumor, dose response (AID 1045); type: functional;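 further: HCT116 colon tumor cells with beta catenin knocked out; cells exposed to compound for 60 hours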
BJ [7] = experiment: BJ-TERT-LT-ST fibroblast viability loss – cell-based, RAS-independent, luminescence, dose response (AID 1935); type: functional; conditions: Homo sapiens;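 further: BJ fibroblasts immortalized with TERT plus LT and ST oncogenes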
[8] = DRD fibroblast viability loss – cell-based, non-viral oncogenic, luminescence, dose response (AID 1934); type: functional; conditions: Homo sapiens
[9] = target: G-protein coupled receptor 55 (Homo sapiens, UniProt Q9Y2T6); experiment: selective activators of receptor GPR55 – imaging, U2OS cells, beta-arrestin-GFP redistribution, primary screen (AID 1961); type: functional
Sequence of G-protein coupled receptor 55 (Q9Y2T6 whole entry): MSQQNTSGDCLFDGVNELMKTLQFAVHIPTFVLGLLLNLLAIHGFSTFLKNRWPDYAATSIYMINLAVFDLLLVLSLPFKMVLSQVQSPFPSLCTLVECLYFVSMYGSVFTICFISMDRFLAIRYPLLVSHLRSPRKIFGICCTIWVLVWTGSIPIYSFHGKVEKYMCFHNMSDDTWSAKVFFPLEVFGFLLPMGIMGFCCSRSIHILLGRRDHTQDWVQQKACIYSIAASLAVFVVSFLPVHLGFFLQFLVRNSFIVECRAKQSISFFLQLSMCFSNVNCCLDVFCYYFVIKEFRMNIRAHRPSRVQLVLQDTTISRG

[10] = Luminescence Cell-Based Dose Retest to Confirm Inhibitors of Cancer Stem Cells. [Related pubchem assays (depositor defined):AID2717, AID2721]; type: functional; conditions: Homo sapiens
BJ [11] = experiment: growth inhibition of engineered Ras-driven BJ cells – cell-based, alamar blue fluorescence, cherrypicked samples, dose response (AID 2631); type: functional; conditions: Homo sapiens;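 further: confirmatory dose-response assay in RAS-dependent BJ fibroblasts engineered with TERT, LT and ST, with cytotoxicity read by fluorescence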
INS1 = experiment: INS-1E survival protection against cytokine death – cell-based, luminescence, retest, dose response (AID 449756); type: functional; conditions: Rattus norvegicus;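 further: cell death triggered by IL-1 beta plus TNF-alpha plus IFN-gamma mixture; protective hits raise ATP signal compared with cytokine alone wells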
[12] = reduction of Shn3 3'UTR-driven luciferase in osteoblasts – cell-based, Clone20 osteoblasts, firefly luciferase, cherry-picked, dose response (AID 624132); type: functional;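 further: firefly luciferase luminescence from reporter carrying the Shn3 3'UTR in osteoblasts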
[13] = non-specific 3'UTR reporter inhibition in Clone20-Shn3RL – cell-based, Renilla luciferase, cherry-picked, counter-screen for Shn3 inhibitor project, dose response (AID 624133); type: functional
[14] = NIH-3T3 fibroblast cytotoxicity, dose response, cytotoxicity control, cell-based, fluorescence, Alamar Blue, secondary assay (AID 2327); type: functional;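 further: NIH-3T3 mouse fibroblasts cultured with fluconazole at 8 µg/mL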
[15] = fluconazole-exposed Candida albicans growth modulators – fluorescence, retest, confirmation (AID 2467); type: functional, cell-based
[16] = target: Serine/threonine-protein phosphatase (Candida dubliniensis (strain CD36 / CBS 7987 / NCPF 3949 / NRRLY-17841) (Yeast), UniProt B9W6M3); experiment: blockers of CaCl2-induced CDRE-lacZ signaling – S. cerevisiae, luminescence, secondary, dose response (AID 2388); type: functional, cell-based;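 further: yeast reporter cells carrying a calcineurin-responsive lacZ construct stimulated with calcium chloride; luminescent beta-galactosidase reporter signal in whole cells rather than isolated phosphatase activity; potency for inhibition where a drop in reporter signal means calcineurin blockade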
[17] = target: ATP-dependent molecular chaperone HSP82 (Candida albicans (strain WO-1) (Yeast), UniProt C4YTQ8); experiment: steroid-induced GRE reporter decrease in yeast – S. cerevisiae, luminescence, Hsp90 inhibitor project, dose response (AID 2400); type: functional, cell-based;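 further: beta-galactosidase luminescence from glucocorticoid response element reporter as proxy for Hsp90 function; inhibitor potency where signal loss means Hsp90 inhibition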
Sequence of ATP-dependent molecular chaperone HSP82 (C4YTQ8 whole entry, the tested form may be a part): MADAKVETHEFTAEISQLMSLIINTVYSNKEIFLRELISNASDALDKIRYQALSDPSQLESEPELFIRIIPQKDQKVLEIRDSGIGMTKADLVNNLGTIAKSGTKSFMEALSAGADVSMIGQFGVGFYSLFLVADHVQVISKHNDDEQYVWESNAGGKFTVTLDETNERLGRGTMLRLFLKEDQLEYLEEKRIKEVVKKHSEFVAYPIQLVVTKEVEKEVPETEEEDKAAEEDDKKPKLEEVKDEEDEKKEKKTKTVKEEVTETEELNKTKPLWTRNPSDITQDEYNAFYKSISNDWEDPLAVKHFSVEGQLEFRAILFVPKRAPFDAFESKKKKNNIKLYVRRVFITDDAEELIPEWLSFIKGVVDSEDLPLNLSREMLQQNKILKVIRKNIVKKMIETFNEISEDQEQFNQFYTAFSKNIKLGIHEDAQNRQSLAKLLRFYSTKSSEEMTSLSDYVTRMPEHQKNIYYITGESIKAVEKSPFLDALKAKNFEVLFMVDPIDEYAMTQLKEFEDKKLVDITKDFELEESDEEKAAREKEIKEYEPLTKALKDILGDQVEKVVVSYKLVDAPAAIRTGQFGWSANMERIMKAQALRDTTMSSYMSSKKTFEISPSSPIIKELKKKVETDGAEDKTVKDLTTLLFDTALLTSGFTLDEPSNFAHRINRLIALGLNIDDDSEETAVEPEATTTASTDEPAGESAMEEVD

[18] = target: T2, Carboxy-terminal domain RNA polymerase II polypeptide A small phosphatase 1 (Homo sapiens, UniProt Q9GZU7); experiment: CTDSP1 inhibitors, concentration-response, biochemical, absorbance readout, ultra-high-throughput screen actives (AID 540297); type: functional
T2 sequence (Q9GZU7 whole entry): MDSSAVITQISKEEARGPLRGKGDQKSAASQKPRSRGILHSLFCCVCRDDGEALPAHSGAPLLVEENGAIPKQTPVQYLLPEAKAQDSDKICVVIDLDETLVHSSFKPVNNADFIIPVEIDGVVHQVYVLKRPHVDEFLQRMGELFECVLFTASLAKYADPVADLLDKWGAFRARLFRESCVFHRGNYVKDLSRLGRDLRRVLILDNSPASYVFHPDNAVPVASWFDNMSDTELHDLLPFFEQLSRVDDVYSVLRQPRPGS

[19] = target: Tyrosine-protein phosphatase non-receptor type 11 (Homo sapiens, UniProt Q06124); experiment: PTPN11 enzyme inhibitors – biochemical, selectivity assay for STEP inhibitor project, dose response (AID 602367); type: functional; conditions: read-out: IC50_Mean
Sequence of Tyrosine-protein phosphatase non-receptor type 11 (Q06124 whole entry): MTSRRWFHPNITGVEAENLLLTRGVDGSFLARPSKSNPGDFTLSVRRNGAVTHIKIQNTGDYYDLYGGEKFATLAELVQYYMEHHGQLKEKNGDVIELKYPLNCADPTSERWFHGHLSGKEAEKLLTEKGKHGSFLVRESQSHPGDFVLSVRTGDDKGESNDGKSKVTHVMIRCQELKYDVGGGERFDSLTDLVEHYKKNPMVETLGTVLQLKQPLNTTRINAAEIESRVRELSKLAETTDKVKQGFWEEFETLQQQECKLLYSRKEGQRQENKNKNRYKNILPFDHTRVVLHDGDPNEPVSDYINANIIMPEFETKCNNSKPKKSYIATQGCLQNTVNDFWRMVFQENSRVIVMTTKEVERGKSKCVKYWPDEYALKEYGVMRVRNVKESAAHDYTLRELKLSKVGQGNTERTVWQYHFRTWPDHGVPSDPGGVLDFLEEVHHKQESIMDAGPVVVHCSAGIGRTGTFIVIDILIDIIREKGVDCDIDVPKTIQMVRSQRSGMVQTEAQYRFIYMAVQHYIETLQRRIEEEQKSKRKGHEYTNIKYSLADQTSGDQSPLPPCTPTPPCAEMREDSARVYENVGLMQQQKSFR

[20] = target: Tyrosine-protein phosphatase non-receptor type 5 (Homo sapiens, UniProt P54829); experiment: PTPN5 enzyme inhibition – biochemical, fluorescence intensity, uHTS hits, confirmation (AID 602372); type: functional; conditions: read-out: IC50_Mean
Sequence of Tyrosine-protein phosphatase non-receptor type 5 (P54829 whole entry): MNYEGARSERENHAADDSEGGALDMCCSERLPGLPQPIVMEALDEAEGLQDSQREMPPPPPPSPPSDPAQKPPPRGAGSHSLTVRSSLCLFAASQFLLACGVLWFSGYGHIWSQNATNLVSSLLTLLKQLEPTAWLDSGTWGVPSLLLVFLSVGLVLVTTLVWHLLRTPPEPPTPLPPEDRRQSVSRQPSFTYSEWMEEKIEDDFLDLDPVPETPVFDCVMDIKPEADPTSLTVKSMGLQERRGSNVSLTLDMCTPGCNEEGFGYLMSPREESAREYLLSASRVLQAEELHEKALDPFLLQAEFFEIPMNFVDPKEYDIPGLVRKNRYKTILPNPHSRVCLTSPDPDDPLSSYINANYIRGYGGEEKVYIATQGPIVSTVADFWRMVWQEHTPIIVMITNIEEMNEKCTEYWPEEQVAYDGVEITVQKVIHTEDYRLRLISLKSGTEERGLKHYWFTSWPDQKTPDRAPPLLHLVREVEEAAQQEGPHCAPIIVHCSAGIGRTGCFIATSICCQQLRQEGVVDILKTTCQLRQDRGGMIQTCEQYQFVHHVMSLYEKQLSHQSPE

[21] = target: Dual specificity protein phosphatase 3 (Homo sapiens, UniProt P51452); experiment: VHR phosphatase inhibition, dose response, selectivity assay for STEP inhibitor project, biochemical (AID 602374); type: functional; conditions: read-out: IC50_Mean
Sequence of Dual specificity protein phosphatase 3 (P51452 whole entry): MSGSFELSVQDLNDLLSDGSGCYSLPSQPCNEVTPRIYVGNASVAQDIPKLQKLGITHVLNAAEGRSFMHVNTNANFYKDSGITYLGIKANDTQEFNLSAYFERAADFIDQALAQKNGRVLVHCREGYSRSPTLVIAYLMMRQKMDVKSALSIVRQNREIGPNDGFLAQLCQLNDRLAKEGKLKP

HEK293 = experiment: EBV LMP1 TES2 canonical NF-kB signalling blockers – cell-based, HEK293, luciferase, cherry-pick, dose response (AID 588343); type: functional; conditions: Homo sapiens
[22] = target: Latent membrane protein 1 (Human herpesvirus 4 (strain B95-8), UniProt P03230); experiment: LMP1 TES1 pathway selectivity over dsRED control – imaging, HEK293T, dual-color eGFP/dsRED, cherry-picks, selectivity assay for LMP1 NF-kB inhibitor project, dose response (AID 588398); type: functional, cell-based
Sequence of Latent membrane protein 1 (P03230 whole entry): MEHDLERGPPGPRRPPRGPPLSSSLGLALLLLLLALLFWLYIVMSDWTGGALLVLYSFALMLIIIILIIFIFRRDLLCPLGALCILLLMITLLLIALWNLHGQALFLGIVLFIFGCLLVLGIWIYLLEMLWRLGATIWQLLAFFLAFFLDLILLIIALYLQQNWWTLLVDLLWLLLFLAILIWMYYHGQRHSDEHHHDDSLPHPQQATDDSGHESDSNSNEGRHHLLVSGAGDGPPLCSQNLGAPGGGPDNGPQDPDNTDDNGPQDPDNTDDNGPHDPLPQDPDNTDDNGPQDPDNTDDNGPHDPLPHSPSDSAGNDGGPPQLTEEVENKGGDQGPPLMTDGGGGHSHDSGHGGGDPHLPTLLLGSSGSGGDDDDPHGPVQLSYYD

[23] = tested on: Streptococcus sp. 'group A'; experiment: Streptococcus pyogenes SK(-)GAS viability under kanamycin – luminescence, BacTiterGlo, confirmation, counter-screen for streptokinase expression inhibitor project, dose response (AID 1900); type: functional, organism-based
Streptokinase A = target: T3, Streptokinase A (Streptococcus pyogenes serotype M1, UniProt P10520); experiment: viability-normalized secreted streptokinase activity reduction – plasminogen activation absorbance, OD405, dose response (AID 1914); type: functional, Streptococcus pyogenes M1 GAS;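 further: secreted streptokinase activity via plasminogen activation per viability signal from cell pellet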
T3 sequence (P10520 whole entry): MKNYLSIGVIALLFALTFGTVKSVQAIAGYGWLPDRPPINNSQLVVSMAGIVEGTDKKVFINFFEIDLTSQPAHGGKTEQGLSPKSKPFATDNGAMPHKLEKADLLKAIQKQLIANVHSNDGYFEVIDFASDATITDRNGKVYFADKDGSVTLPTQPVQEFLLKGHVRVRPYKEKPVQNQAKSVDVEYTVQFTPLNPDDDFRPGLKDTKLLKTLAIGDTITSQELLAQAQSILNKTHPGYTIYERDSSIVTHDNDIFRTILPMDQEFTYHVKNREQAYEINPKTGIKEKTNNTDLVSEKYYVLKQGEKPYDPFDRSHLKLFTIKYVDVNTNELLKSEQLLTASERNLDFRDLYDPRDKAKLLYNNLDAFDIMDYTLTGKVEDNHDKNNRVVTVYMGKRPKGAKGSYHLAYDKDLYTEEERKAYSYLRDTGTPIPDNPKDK

[24] = Trypanosoma cruzi growth suppression in host cells – NIH3T3 host cells, beta-gal luminescence, confirmation (AID 2044); type: functional, cell-based;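 further: intracellular parasites grown in NIH/3T3 mouse fibroblasts as host cells; luminescent beta-galactosidase reporter signal from transgenic T. cruzi replicating inside host cells; inhibitors lower the luminescence signal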
[25] = NIH3T3 cell viability loss – ATP luminescence, mouse fibroblasts, counter-screen, dose response (AID 2010); type: functional, cell-based;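 further: cells exposed to compound for about 90 hours before reading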
Streptococcus = experiment: GAS UMAA2166 growth inhibition – luminescence, BacTiterGlo, counter-screen for streptokinase expression inhibitor project, dose response (AID 1915); type: functional, organism-based;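 further: potency for reduction of bacterial viability or growth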
[26] = target: T4, Apoptotic protease-activating factor 1 (Homo sapiens, UniProt O14727); experiment: SAR analysis of small molecule Activators of Apaf-1 in a Fluorescent assay.; type: functional; conditions: read-out: EC50_Mean;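 further: caspase-3 cleavage of fluorogenic Rh110 DEVD substrate downstream of apoptosome activation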
T4 sequence (O14727 whole entry): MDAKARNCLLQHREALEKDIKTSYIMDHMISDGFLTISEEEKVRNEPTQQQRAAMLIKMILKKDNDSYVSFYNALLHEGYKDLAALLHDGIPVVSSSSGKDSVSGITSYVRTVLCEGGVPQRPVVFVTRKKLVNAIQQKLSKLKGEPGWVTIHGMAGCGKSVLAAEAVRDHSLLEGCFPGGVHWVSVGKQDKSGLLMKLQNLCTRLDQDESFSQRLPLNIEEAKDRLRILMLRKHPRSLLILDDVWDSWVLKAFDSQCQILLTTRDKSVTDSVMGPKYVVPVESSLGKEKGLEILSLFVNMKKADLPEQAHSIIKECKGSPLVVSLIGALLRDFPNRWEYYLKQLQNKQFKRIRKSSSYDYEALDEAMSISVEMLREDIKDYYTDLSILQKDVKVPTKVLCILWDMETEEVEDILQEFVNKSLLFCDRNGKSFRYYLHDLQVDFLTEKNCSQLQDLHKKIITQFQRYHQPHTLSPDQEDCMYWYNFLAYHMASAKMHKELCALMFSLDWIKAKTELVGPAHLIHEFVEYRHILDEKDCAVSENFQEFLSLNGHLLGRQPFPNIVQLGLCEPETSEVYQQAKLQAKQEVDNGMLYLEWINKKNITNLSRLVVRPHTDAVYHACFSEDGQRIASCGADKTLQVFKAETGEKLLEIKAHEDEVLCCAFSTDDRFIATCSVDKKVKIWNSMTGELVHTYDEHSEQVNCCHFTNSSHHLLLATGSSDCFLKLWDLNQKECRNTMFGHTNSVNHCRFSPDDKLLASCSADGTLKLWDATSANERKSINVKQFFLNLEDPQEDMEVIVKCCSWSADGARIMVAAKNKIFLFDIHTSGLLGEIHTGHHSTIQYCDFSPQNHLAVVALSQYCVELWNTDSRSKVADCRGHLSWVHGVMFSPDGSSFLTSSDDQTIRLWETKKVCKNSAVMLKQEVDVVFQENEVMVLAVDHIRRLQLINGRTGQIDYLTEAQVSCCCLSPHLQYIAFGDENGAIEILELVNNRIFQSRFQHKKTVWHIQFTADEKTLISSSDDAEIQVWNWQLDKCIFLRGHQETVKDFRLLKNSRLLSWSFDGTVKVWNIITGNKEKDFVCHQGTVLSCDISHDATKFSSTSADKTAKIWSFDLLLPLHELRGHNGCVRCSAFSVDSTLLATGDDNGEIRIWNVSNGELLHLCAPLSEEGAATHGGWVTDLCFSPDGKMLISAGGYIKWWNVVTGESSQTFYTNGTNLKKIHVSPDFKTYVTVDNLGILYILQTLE

[27] = target: Cell division cycle 7-related protein kinase (Homo sapiens, UniProt O00311); type: functional;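 further: value obtained from a kinome-wide kinase panel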
[28] = target: High affinity nerve growth factor receptor (Homo sapiens, UniProt P04629); type: functional;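 further: NTRK1 tested as one member of a kinome-wide profiling panel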
[29] = target: Glycogen synthase kinase-3 alpha (Homo sapiens, UniProt P49840); type: functional;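 further: GSK3A result taken from a broad kinome-wide kinase panel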
Sequence of Glycogen synthase kinase-3 alpha (P49840 whole entry): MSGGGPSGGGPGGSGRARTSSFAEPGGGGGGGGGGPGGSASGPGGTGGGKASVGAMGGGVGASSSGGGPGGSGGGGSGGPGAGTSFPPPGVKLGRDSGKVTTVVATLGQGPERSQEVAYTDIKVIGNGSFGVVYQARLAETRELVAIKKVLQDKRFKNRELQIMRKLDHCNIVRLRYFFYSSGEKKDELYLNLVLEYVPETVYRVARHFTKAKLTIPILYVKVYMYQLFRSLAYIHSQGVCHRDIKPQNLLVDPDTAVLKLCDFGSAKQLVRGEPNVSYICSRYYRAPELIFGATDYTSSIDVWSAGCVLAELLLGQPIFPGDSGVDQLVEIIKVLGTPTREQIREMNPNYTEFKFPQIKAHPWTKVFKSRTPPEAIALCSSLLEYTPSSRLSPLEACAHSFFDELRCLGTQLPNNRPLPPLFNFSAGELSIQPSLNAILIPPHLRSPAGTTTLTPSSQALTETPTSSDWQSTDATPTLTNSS

[30] = target: Glycogen synthase kinase-3 beta (Homo sapiens, UniProt P49841); type: functional;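 further: value comes from a broad kinome profiling panel, with GSK3B as the panel member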
Sequence of Glycogen synthase kinase-3 beta (P49841 whole entry): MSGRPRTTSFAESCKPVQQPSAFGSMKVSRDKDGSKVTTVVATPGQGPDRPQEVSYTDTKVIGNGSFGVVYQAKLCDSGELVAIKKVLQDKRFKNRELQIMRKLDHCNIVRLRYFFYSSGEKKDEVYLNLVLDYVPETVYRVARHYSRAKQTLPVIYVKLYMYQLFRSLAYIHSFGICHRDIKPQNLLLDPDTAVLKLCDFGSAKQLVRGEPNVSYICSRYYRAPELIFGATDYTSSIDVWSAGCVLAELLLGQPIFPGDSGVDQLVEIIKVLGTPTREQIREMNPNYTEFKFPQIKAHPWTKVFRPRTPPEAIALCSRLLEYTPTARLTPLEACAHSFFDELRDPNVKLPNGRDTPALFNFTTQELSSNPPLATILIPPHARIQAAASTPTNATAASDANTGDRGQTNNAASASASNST

[31] = target: Serine/threonine-protein kinase MRCK alpha (Homo sapiens, UniProt Q5VT25); type: functional
Nonstructural protein 1 = Nonstructural protein 1 (Influenza A virus, UniProt Q194T2); type: functional, Influenza A virus (A/California/07/2009(H1N1))
Sequence of Nonstructural protein 1 (Q194T2 whole entry): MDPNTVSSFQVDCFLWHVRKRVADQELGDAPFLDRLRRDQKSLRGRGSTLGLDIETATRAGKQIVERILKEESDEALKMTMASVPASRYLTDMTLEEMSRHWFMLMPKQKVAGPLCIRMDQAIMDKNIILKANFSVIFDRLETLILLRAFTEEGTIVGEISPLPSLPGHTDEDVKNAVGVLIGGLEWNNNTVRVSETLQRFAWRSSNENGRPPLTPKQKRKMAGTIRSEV

Vero = experiment: cells; type: functional; conditions: Chlorocebus sabaeus

Sequence of Potassium voltage-gated channel subfamily KQT member 2 (O88943 whole entry): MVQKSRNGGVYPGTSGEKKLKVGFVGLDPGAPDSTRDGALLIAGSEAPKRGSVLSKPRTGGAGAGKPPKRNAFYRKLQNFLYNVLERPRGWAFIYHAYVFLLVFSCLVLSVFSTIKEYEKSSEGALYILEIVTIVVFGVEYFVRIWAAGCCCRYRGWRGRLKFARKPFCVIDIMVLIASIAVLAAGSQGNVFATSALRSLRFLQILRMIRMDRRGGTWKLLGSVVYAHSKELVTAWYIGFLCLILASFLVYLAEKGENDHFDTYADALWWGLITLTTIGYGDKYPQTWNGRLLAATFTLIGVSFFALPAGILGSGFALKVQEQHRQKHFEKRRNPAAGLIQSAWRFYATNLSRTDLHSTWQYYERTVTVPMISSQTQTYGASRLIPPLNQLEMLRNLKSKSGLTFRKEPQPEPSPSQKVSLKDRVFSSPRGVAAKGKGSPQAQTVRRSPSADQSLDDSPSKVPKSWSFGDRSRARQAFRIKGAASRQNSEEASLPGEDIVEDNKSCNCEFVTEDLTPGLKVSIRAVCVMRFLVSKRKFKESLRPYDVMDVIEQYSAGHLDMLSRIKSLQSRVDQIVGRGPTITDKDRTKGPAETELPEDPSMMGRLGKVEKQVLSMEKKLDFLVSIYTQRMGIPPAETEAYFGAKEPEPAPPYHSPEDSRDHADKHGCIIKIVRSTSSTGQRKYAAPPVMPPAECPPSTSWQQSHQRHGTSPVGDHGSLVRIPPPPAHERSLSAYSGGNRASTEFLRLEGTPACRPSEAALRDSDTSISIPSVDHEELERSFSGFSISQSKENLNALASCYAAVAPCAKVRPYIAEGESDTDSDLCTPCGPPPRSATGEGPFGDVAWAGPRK

Cc1csc2nc(CSc3ccc(Cl)cc3)cn12
IC50 [1]: 4.2 µM (active)

CCOC(=O)/C(=C\c1ccc([N+](=O)[O-])cc1)C(=O)c1cc(C(C)=O)c(Nc2ccccc2)s1
EC50 (BJ [2]): 2.12 µM (active) | EC50 [3]: 3.16 µM (inconclusive) | EC50 (BJ [4]): 3.1 µM (active) | EC50 [5]: 4.17 µM (active) | EC50 [6]: 3.81 µM (active) | EC50 (BJ [7]): 2.18 µM (inconclusive) | EC50 [8]: 3.32 µM (active) | EC50 [9]: > 32 µM (inactive) | AC50 [10]: 0.685 µM (active) | EC50 (BJ [11]): 1.49 µM (active) | AC50 (INS1): 1.94 µM (active) | AC50 [12]: 2.47 µM (active) | AC50 [13]: 6.21 µM (active)

CCc1cc(C(=O)NN=C(S)Nc2cc(C)ccc2C)cs1
EC50 [14]: > 150 µM (inactive) | EC50 [15]: 0.382 µM (active) | EC50 [16]: > 180 µM (inactive) | EC50 [17]: > 150 µM (inactive)

Cc1c(CC(=O)O)c(=O)oc2c(C)c(OCc3ccccc3Br)ccc12
IC50 [18]: 3.92 µM (active) | IC50 [19]: 7.43 µM (active) | IC50 [20]: 13.4 µM (active) | IC50 [21]: 6.67 µM (active)

O=C(CF)N(O)c1ccc(C=Cc2ccccc2)cc1
AC50 (HEK293): 0.732 µM (active) | AC50 [22]: 0.734 µM (active)

CCCc1ccc(-c2cc(C(=O)N/N=C/c3ccc([N+](=O)[O-])o3)c3ccccc3n2)cc1
EC50 [23]: 2.75 µM (active) | EC50 (Streptokinase A): > 150 µM (not active) | EC50 [24]: 0.194 µM (active) | EC50 [25]: 8.91 µM (active) | EC50 (Streptococcus): 2.59 µM (active) | AC50 (HEK293): 2.89 µM (active) | AC50 [22]: 112 µM (active)

COC(=O)[C@@H]1COC(c2ccc(OC)c(C(F)(F)F)c2)=N1
EC50 [26]: > 100 µM (inactive)

NC(=O)c1ccc(-c2c[nH]c3nc(N)nc(NCc4c(F)cccc4F)c23)cc1
Ki [27]: 0.1 µM (active) | Ki [28]: 2.51 µM (active)

CC(=O)Nc1nonc1-n1nnc(C(=O)NN=Cc2cccs2)c1-c1ccccc1
Ki [29]: 3.16 µM (active) | Ki [30]: 6.31 µM (active) | Ki [31]: 10 µM (active)

C/C(=N\NC(=O)c1cccc2ccccc12)c1ccccn1
EC50 [23]: 2.88 µM (active) | EC50 (BJ [2]): 5.73 µM (active) | EC50 (BJ [4]): 3.45 µM (active) | EC50 (BJ [7]): 3.87 µM (active) | EC50 [8]: 2.4 µM (active) | EC50 (Streptococcus): 6.39 µM (active) | IC50 (Nonstructural protein 1): 7.25 µM (active) | EC50 (BJ [11]): 0.497 µM (inconclusive) | CC50 (Vero): 3.56 µM (active)
